One experiment deals with salivary gland function. Nature of the experiment: Saliva production in mice after single dose head and neck IR. The format is in vivo. As to the method:
The star indicates time of IR treatment. Three TKI dosing regimens were used, where times of delivery is indicated by the filled circles. Mice were treated with the specific TKI 1 hour prior to delivery of IR (pre), 1 hour prior and 3 hours post IR (pre/post), or 3 and 6 hours post (post/post). Saliva production was assayed prior to IR (day 0) and at 60 days after IR as described in Examples. […] Saliva was collected […]. as described in Examples. Salivary production (saliva weight/animal weight) for each cohort of mice was normalized against the saliva production for vehicle treated mice to generate the data shown.
(§1) The star indicates time of IR treatment; while TKI delivery is indicated by the filled circles and arrows indicate time of saliva collection. Mice were dosed 1 hour prior and 3 hours post IR (pre/post), or pre/post plus twice a week for the duration of the experiment. Saliva production was assayed prior to IR (day 0) and at 30, 60, 90, 120 and 150 days after IR. Mice received vehicle alone, 15 Gy IR plus vehicle, or IR plus dasatinib as indicated. Saliva production (saliva weight/animal weight) for each cohort of mice was normalized against the production for vehicle-treated mice to generate the data shown in FIG. 3B. […] Salivary glands from mice in each group (n=2) were removed, formalin fixed and paraffin embedded. Immunohistochemistry for AQPN5 and H&E staining was performed on salivary glands from each mouse. […] Images were captured using an Olympus BX51 scope and Olympus DP72 camera with a 20× objective. Solid arrows indicate acinar cells while dashed arrows mark salivary gland ducts.
The schematic in FIG. 2A depicts the 3 dosing regimens used for the experiments in FIG. 2.
(§2) C57Bl/6 and athymic nude female mice were purchased from Jackson Laboratories (Bar Harbor, Me., USA). For single dose IR, mice were anesthetized by intraperitoneal (i.p.) injection of […] Avertin (Sigma), immobilized within a 50-mL conical tube, and a single dose of IR (10 or 15 Gy) was delivered to the head and neck using a Caesium-137 source. For fractionated IR, mice received 5 fractions of 6 Gy (tumor study) or 4 Gy (saliva production) on 5 consecutive days.
Saliva was collected immediately following i.p. injection of 0.1 mg/kg carbachol (Sigma) in saline (0.9% NaCl). Whole saliva was collected for 3 mins from the lower cheek pouch using a suction device and expressed as mg (saliva)/g (mouse weight).

The next experiment deals with SMG acinar cells. Description: Salivary gland histology (H&E, AQPN5 immunohistochemistry) 150 days after IR. The format is in vivo, mice. To be noted: 15 Gy IR, continuous dasatinib. As to the method: as §1, with “indicated.” for “indicated. Saliva production (saliva weight/animal weight) for each cohort of mice was normalized against the production for vehicle-treated mice to generate the data shown in FIG. 3B.”, “Solid arrows indicate acinar cells while dashed arrows mark salivary gland ducts.” left out
For tissue analysis, salivary glands were formalin fixed, paraffin embedded, and sectioned at […]. Tissue sections were stained with haematoxylin-eosin (H&E) and aquaporin 5 (AQPN5) was detected by immunohistochemistry (Abcam). Stained slides were archived and analyzed using the Aperio Digital Pathology System and ImageScope software (Leica Biosystems). For AQPN5, the number of positive stained pixels was quantified using the Positive Pixel algorithm in three representative sections, cut 50 micrometers apart, of both full submandibular salivary glands from two mice per treatment group, for a total of […] per group. […]

A further experiment concerns ParC5 cells. Description: IR-induced apoptosis, caspase-3/7 activity in salivary gland acinar cells. The format is cell-based, rat. To be noted: TKI pretreatment 30 min, 10 Gy IR, 18 hours after IR. As to the method: Whole cell lysates were resolved with SDS-PAGE and analyzed using phospho-specific antibodies that recognize PKC-delta pY64, pY155 or pT505. Membranes were stripped and probed for total PKC-delta and actin to determine loading. Each experiment was done a minimum of three times; representative immunoblots are shown. […] Caspase-3/7 activity was assayed as described in the Examples. Data shown is the average of triplicate samples from a representative experiment plus and minus the S.D. (error bars). The experiment was repeated three times, *=p<0.05 for caspase activity compared to cells expressing shScr. An immunoblot showing depletion of PKC-delta is shown below. […] The data are the average of triplicate measurements from a representative experiment plus the S.D. (error bars). Each experiment was repeated three times. *=p<0.05 for caspase activity compared to cells treated with IR alone. […] Inhibition of c-Src and c-Abl was determined by probing for their respective activation sites pY416 (c-Src) and pY412 (c-Abl). […]
Phosphorylation of PKC-delta at T505 is seen within 1 hour after IR, while phosphorylation at Y64 and Y155 are detectable by 2 hours post IR and continue to increase until at least 6 hours (FIG. 1A). […] Active caspase-3/7 was detected using the Caspase-3/7 Cellular Activity Assay Kit PLUS (Biomol, Farmingdale, N.Y.) according to the manufacturer's instructions.

In experiment [1] the test system is PKC-delta, c-Src, c-Abl in ParC5 cells. Nature of the experiment: Immunoblot for PKC-delta pY64/pY155, c-Src pY416 and c-Abl pY412 after H2O2. Format: cell-based, rat. The note with it: TKI 30 min, then 5 mM H2O2 30 min. In general terms: In western blotting, separated proteins are transferred to a membrane and probed.
The test system of experiment [2] is FaDu derived xenograft tumors. Description: FaDu flank xenograft tumor growth with fractionated IR. The format is in vivo, nude mice. As to the method:
as §2

Another experiment has as its system PKC-delta. To be noted: in response to DNA damaging agents; previously shown; cited from earlier work.

For the compound `Cc1nc(Nc2ncc(C(=O)Nc3c(C)cccc3Cl)s2)cc(N2CCN(CCO)CC2)n1` [dasatinib], the “saliva production, % of vehicle treated controls” value in the experiment with salivary gland function (15 Gy IR, dasatinib 20 mg/kg pre/post, 60 days post IR (FIG. 2B)) is 65%; with salivary gland function (15 Gy IR, dasatinib pre/post plus twice a week (continual), 90 days), 74%; in the experiment on salivary gland function (15 Gy IR, dasatinib pre/post plus twice a week (continual), 120 days) it was 69%; in the experiment with salivary gland function (15 Gy IR, dasatinib pre/post plus twice a week (continual), 150 days) it was 82%. In addition, in the experiment on salivary gland function (15 Gy IR, dasatinib pre/post only, 30 and 60 days (FIG. 3B)), the “saliva production, % of vehicle treated mice” value came out at 70%. Also, the “protection of salivary gland function compared to vehicle only treated mice” value in the experiment on salivary gland function (IR plus dasatinib, all 3 protocols (pre, pre/post, post/post), 60 days (FIG. 2D)) is on record as about 100%. The “AQPN5 staining in the SMGs, % of vehicle treated mice” value in the experiment on SMG acinar cells is reported as 93%.

For the compound `Cc1ccc(NC(=O)c2ccc(CN3CCN(C)CC3)cc2)cc1Nc1nccc(-c2cccnc2)n1` [imatinib], the “IR-induced apoptosis (caspase-3/7 activity)” value with ParC5 cells is “inhibits IR-induced apoptosis”. Further, in experiment [1], the “inhibition of Y155 versus Y64 phosphorylation of PKC-delta” value was “slightly more potent inhibitors of Y155 phosphorylation than Y64 phosphorylation” and the “inhibition of c-Abl versus c-Src” value is reported as “more potent inhibition of c-Abl than c-Src”. Further, the “saliva production, % of vehicle control” value in the experiment on salivary gland function (IR plus imatinib, one dose prior to IR (pre), 60 days (FIG. 2E)) turned out to be 63%. Moreover, the “tumor growth, TKI added to fractionated IR” value in experiment [2] (5 x 6 Gy IR, dasatinib 20 mg/kg or imatinib 50 mg/kg pre/post each fraction) is reported as “no effect on tumor growth”. The “tumor growth, TKI alone compared to respective controls” value in experiment [2] (dasatinib 20 mg/kg or imatinib 50 mg/kg alone, no IR) is recorded as “trend towards reduced tumor growth”. Besides, the “phosphorylation of PKC-delta at Y64 and Y155, nuclear translocation of PKC-delta, and apoptosis” value with PKC-delta was “block”.

The values above are taken from patent publication US11376247B2, “Tyrosine kinase inhibitors regenerate non-cancerous tissue after cancer therapy” (THE REGENTS OF THE UNIVERSITY OF COLORADO, A BODY CORPORATE, priority 2017, dated 2022).
